Source: patent US12516022B2, “Derivatives of aryl hydrocarbon receptor agonists” (AZORA THERAPEUTICS, INC., priority 2021, dated 2026)

Test: Time course of conversion to indirubin in FaSSIF at 37° C.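 Note: test compound, about 1-3 mg in 5 mL FaSSIF, sampled and analysed by UPLC-MS with PDA UV (210-400 nm), QDa mass and evaporative light scattering detection.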
Format: physicochemical
Details: for Conversion to indirubin: over a 24 hour period

SMILES | indirubin (FaSSIF 37° C. 24 h) | indirubin methylene alcohol (FaSSIF 37° C. 24 h) | starting material (prodrug compound) (FaSSIF 37° C. 24 h) | indirubin (FaSSIF 37° C., 15 min) | indirubin methylene alcohol (FaSSIF 37° C., 15 min) | starting material (prodrug compound) (FaSSIF 37° C., 15 min) | indirubin (FaSSIF 37° C., 30 min) | indirubin methylene alcohol (FaSSIF 37° C., 30 min) | starting material (prodrug compound) (FaSSIF 37° C., 30 min) | indirubin (FaSSIF 37° C., 1 h) | indirubin methylene alcohol (FaSSIF 37° C., 1 h) | starting material (prodrug compound) (FaSSIF 37° C., 1 h) | indirubin (FaSSIF 37° C., 2 h) | indirubin methylene alcohol (FaSSIF 37° C., 2 h) | starting material (prodrug compound) (FaSSIF 37° C., 2 h) | Conversion to indirubin (FaSSIF 37° C.)
CCN(CC)CN1C(=O)/C(=C2\Nc3ccccc3C2=O)c2ccccc21 [drawing 252] | 100% | 0% | 0% | 100% | 0% | 0% | 100% | 0% | 0% | 100% | 0% | 0% | 100% | 0% | 0% | 80-100%
CN(C)CCN(C)CN1C(=O)/C(=C2\Nc3ccccc3C2=O)c2ccccc21 [drawing 253] | 87% | 7% | 0% | 90% | 7% | 0% | 90% | 7% | 0% | 89% | 6% | 0% | 85% | 6% | 0% | 80-100%
O=C1/C(=C2/C(=O)N(CN3CCCCC3)c3ccccc32)Nc2ccccc21 [drawing 254] | – | – | – | – | – | – | – | – | – | – | – | – | – | – | – | 80-100%
O=C1/C(=C2/C(=O)N(CN3CCCC3)c3ccccc32)Nc2ccccc21 [drawing 255] | 100% | 0% | 0% | 100% | 0% | 0% | 100% | 0% | 0% | 100% | 0% | 0% | 100% | 0% | 0% | 80-100%
CN(C)C1CCN(CN2C(=O)/C(=C3\Nc4ccccc4C3=O)c3ccccc32)CC1 [drawing 256] | 72% | 6% | 0% | 61% | 5% | 30% | 62% | 5% | 31% | 58% | 5% | 32% | 70% | 7% | 22% | 60-80%
CN(C)CCN(CCN(C)C)CN1C(=O)/C(=C2\Nc3ccccc3C2=O)c2ccccc21 [drawing 257] | 74% | 4% | 0% | 78% | 13% | 6% | 78% | 13% | 6% | 78% | 13% | 6% | 83% | 10% | 4% | 60-80%
CC(=O)N1CCN(CN2C(=O)/C(=C3\Nc4ccccc4C3=O)c3ccccc32)CC1 [drawing 258] | 37% | 14% | 10% | 8% | 12% | 31% | 12% | 14% | 37% | 12% | 12% | 30% | 21% | 10% | 29% | 40-60%
O=C1/C(=C2/C(=O)N(CO)c3ccccc32)Nc2ccccc21 [drawing 259] | 17% | – | 73% | 12% | – | 81% | 15% | – | 82% | 14% | – | 80% | 17% | – | 79% | 20-40%
O=C1/C(=C2/C(=O)N(CN3CCC(F)(F)CC3)c3ccccc32)Nc2ccccc21 [drawing 260] | 40% | 0% | 52% | 45% | 0% | 54% | 29% | 0% | 39% | 18% | 0% | 37% | 49% | 0% | 51% | 20-40%
O=C1/C(=C2/C(=O)N(CN3CCOCC3)c3ccccc32)Nc2ccccc21 [drawing 261] | 24% | 7% | 46% | 5% | 0% | 69% | 8% | 3% | 80% | 6% | 0% | 64% | 7% | 4% | 65% | 20-40%

Next, values leading:

indirubin (FaSSIF 37° C. 24 h) | indirubin methylene alcohol (FaSSIF 37° C. 24 h) | starting material (prodrug compound) (FaSSIF 37° C. 24 h) | indirubin (FaSSIF 37° C., 15 min) | indirubin methylene alcohol (FaSSIF 37° C., 15 min) | starting material (prodrug compound) (FaSSIF 37° C., 15 min) | indirubin (FaSSIF 37° C., 30 min) | indirubin methylene alcohol (FaSSIF 37° C., 30 min) | starting material (prodrug compound) (FaSSIF 37° C., 30 min) | indirubin (FaSSIF 37° C., 1 h) | indirubin methylene alcohol (FaSSIF 37° C., 1 h) | starting material (prodrug compound) (FaSSIF 37° C., 1 h) | indirubin (FaSSIF 37° C., 2 h) | indirubin methylene alcohol (FaSSIF 37° C., 2 h) | starting material (prodrug compound) (FaSSIF 37° C., 2 h) | Conversion to indirubin (FaSSIF 37° C.) | SMILES
12% | 83% | 0% | 7% | 79% | 0% | 14% | 73% | 0% | 7% | 81% | 0% | 7% | 83% | 0% | 0-20% | O=C1/C(=C2/C(=O)N(COS(=O)(=O)O)c3ccccc32)Nc2ccccc21 [drawing 262]
6% | 0% | 55% | 8% | 0% | 50% | 5% | 0% | 44% | 5% | 0% | 33% | 10% | 1% | 50% | 0-20% | O=C1/C(=C2/C(=O)N(C(=O)NC3CCOCC3)c3ccccc32)Nc2ccccc21 [drawing 263]
0% | 0% | 100% | 0% | 0% | 100% | 0% | 0% | 100% | 0% | 0% | 100% | 0% | 0% | 100% | 0-20% | CNCCNC(=O)N1C(=O)/C(=C2\Nc3ccccc3C2=O)c2ccccc21.Cl [drawing 264]
30% | 0% | 53% | 8% | 0% | 80% | 12% | 0% | 74% | 11% | 0% | 77% | 18% | 0% | 68% | 0-20% | CN1CCN(CN2C(=O)/C(=C3\Nc4ccccc4C3=O)c3ccccc32)CC1 [drawing 265]
20% | 7% | 62% | 9% | 5% | 72% | 8% | 5% | 79% | 10% | 5% | 80% | 13% | 4% | 75% | 0-20% | O=C1/C(=C2/C(=O)N(CN3CCC3)c3ccccc32)Nc2ccccc21 [drawing 266]
